Reference: ChEMBL document CHEMBL1201862, “PubChem BioAssay data set” (2004)
Active and inactive are the calls of the source.

Columns and labels:
[1] = M. tuberculosis growth inhibition, HTS (AID 449762); format: functional
[2] = microbe, parasite or virus in culture; format: functional; conditions: Mycobacterium tuberculosis
[3] = alpha-synuclein stem-loop luciferase translation blockers – H4 neuroglioma cells, luminescence, confirmation (AID 1988); format: functional, cell-based
[4] = PAX5 cellular inhibition readout – cell-based, plate reader, dry powder samples, selectivity assay for PAX8 inhibitor project, dose response (AID 743047); format: functional;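 also: HEK293 cells carrying a Pax5 driven CD19 promoter luciferase reporter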
Paired box protein Pax-8 = Paired box protein Pax-8 (Homo sapiens, UniProt Q06710); test: PAX8 transcriptional activity inhibition in RMG-I – RMG-I cells, luciferase, cherry-pick, dose response (AID 687027); format: functional, cell-based;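 also: luciferase reporter driven by Pax8 target thyroperoxidase promoter measured by SteadyGlo luminescence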
Chain of Paired box protein Pax-8 (Q06710 whole entry, the tested form may be a part): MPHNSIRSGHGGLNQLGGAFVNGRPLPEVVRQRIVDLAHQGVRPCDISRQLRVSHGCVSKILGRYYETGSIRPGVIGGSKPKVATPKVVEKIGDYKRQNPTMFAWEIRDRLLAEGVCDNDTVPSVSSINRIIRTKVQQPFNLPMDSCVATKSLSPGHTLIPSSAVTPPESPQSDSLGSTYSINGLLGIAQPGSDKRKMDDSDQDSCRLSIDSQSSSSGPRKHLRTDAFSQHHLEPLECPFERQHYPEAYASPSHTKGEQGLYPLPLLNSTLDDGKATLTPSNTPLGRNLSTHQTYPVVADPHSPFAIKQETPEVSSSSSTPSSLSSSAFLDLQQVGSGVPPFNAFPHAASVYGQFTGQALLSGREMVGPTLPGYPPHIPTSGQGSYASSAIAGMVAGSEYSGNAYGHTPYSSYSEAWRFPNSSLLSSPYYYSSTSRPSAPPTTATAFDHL

[5] = off-target signal loss in HeLa-CEM21 co-culture – HeLa F-luc CTL cells, cherry-picked, counter-screen for HIV-1 Env fusion inhibitor project, dose response (AID 652040); format: functional, cell-based;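 also: potency for signal decrease marking cytotoxic or nonspecific inhibition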
[6] = blockers of HIV-1 ZM109 envelope-driven cell-cell fusion – HeLa effector, CEM target cells, luciferase, cherry-pick, dose response (AID 652058); format: functional, cell-based;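 also: luciferase signal from HIV-1 Env mediated cell-cell fusion of effector and target cells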
[7] = HIV-1 AD8 envelope cell-cell fusion blockers – cherry-pick, dose response (AID 652062); format: functional, cell-based;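 also: luciferase signal from cell-cell fusion driven by HIV-1 clade B AD8 Env; potency is for inhibitors of fusion seen as a drop in luminescence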
[8] = PAX8-dependent cell viability loss – plate reader, dry powder, dose response (AID 743049); format: functional, cell-based
[9] = luciferase reporter signal suppression in cells – H4 neuroglioma cells, luminescence, dose response (AID 1990); format: functional, cell-based
[10] = HEK-293T cell viability reduction – luminescence, B-cell screen hits, cytotoxicity control for BCR NF-kB inhibitor project, dose response (AID 489021); format: functional, cell-based;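 also: HEK-293T cells carrying an NF-kB luciferase reporter; cells exposed to compound for about 14 hours before viability readout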
[11] = blockade of melanocortin 4 receptor signaling – cell-based, plate reader, cherry pick, counter-screen for LGR2 antagonist project, dose response (AID 743444); format: functional;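 also: transfected HEK 293 cells stimulated with alpha-MSH peptide; potency of inhibitors of the alpha-MSH evoked signal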
[12] = inhibitors acting on PAX2 in cells – cell-based, plate reader, dry powder samples, selectivity assay for PAX8 inhibitor project, dose response (AID 743048); format: functional;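 also: HEK293 cells carrying a WT1 promoter luciferase reporter driven by expressed Pax2; potency is for inhibition of Pax2 driven reporter signal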
[13] = blockers of HIV-1 envelope-mediated cell-cell fusion – cherry-pick, dose response (AID 652057); format: functional, cell-based
[14] = blockers of bursicon-stimulated LGR2 cAMP reporter – cell-based, HEK293, CRE-luciferase reporter, cherry pick, set 2, dose response (AID 743343); format: functional;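 also: transfected cells were stimulated with diluted bursicon conditioned medium after compound addition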
[15] = Luminescence Cell-Based Dose Response HTS to Identify Inhibitors of 5'UTR Stem-Loop Driven Prion Protein mRNA Translation in H4 Neuroglioblastoma Cells. [Related pubchem assays: 1827 (Project Summary), 1813 (Primary HTS)]; format: functional
[16] = biological target: Heat shock protein HSP 90-alpha (Homo sapiens, UniProt P07900); test: Luminescence-based dose response biochemical high throughput screening assay for inhibitors of the Heat Shock Protein 90 (HSP90). [Related pubchem assays: 1831 (Summary AID.), 1846 (Confirmation screen.), 1789 (Primary screen.)]
Cytochrome P450 1A2 = biological target: T1, Cytochrome P450 1A2 (Homo sapiens, UniProt P05177);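 also: PubChem cytochrome P450 panel assay, CYP1A2 panel member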
T1 sequence (P05177 whole entry): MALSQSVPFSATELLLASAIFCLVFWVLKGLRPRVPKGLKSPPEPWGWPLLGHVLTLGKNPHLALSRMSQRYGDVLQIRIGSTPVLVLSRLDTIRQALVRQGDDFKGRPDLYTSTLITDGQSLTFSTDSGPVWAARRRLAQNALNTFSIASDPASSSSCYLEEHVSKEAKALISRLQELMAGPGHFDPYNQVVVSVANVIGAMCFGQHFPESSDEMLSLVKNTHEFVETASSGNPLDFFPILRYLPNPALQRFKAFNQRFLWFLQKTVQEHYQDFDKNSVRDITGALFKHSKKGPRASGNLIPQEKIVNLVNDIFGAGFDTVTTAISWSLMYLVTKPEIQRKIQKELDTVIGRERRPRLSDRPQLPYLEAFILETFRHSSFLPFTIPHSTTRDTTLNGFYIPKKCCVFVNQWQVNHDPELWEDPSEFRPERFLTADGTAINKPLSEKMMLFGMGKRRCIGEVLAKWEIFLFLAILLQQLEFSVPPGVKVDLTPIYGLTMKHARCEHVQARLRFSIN

Cytochrome P450 2C19 = Cytochrome P450 2C19 (Homo sapiens, UniProt P33261); test: Cytochrome panel assay with activity outcomes. Panel member name: p450-cyp2c19 Compounds with AC50 equal or less than 10 uM are considered active; format: functional; conditions: read-out: AC50
Chain of Cytochrome P450 2C19 (P33261 whole entry): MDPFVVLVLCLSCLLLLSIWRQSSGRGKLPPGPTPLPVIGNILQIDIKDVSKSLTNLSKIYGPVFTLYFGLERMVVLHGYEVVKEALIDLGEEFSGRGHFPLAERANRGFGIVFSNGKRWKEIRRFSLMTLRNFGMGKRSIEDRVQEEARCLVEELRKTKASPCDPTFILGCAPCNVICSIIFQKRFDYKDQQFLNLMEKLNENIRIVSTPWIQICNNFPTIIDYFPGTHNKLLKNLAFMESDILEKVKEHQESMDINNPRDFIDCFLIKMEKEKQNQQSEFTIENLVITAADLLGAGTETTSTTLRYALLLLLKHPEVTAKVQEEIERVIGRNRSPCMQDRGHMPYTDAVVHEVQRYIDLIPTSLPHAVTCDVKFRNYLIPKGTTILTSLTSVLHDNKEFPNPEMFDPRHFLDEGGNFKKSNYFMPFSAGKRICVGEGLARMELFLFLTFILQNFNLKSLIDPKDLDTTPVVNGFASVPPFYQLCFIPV

[17] = biological target: E3 ubiquitin-protein ligase Mdm2 (Homo sapiens, UniProt Q00987); test: MDM2-luc reporter signal enhancers, multi-concentration potency testing, MDM2 ubiquitin-protein ligase inhibitor program, whole-cell format, luminescence detection, 384-well microplate (AID 1394); format: functional;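 also: MDM2 E3 inhibitors raise luminescence so EC50 is for signal enhancement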
Chain of E3 ubiquitin-protein ligase Mdm2 (Q00987 whole entry): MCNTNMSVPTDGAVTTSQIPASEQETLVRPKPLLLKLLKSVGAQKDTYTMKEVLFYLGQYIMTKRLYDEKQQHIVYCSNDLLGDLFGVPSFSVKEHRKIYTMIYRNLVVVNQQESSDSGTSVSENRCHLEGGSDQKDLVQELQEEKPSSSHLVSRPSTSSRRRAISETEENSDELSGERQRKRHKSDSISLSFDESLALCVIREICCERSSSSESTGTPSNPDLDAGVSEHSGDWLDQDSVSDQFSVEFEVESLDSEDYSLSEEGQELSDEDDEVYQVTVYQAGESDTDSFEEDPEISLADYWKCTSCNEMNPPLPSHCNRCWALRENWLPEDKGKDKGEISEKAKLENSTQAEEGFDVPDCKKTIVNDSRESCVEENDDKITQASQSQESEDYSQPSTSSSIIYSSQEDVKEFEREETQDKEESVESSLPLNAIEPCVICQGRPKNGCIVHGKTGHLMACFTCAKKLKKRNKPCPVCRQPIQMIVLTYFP

[18] = HIV-1 Vif–A3G interaction blockers – biochemical, TR-FRET, GST-Vif 1-94, biotin-A3G peptide, dose response retest, primary screen (AID 1117319); format: functional;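 also: TR-FRET signal of purified GST-Vif binding a biotinylated A3G peptide; inhibitors lower the FRET signal by blocking Vif and A3G binding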

Q: With `C/C(=N\NC(=O)c1cc2c(s1)CCC(C)C2)c1ccncc1` (configuration not stated) as the compound, how does the IC50 [1] read?
A: > 100 µM (active)

Q: What about the CC50 [2] of the same compound?
A: > 40 µM (active)

Q: Which EC50 [3] does the source give for `O=C(CN1C(=O)c2ccccc2S1(=O)=O)c1ccccc1Cl` here?
A: 104 nM (active)

Q: What about the AC50 [4] of the same compound?
A: 7.1 µM (active)

Q: What about the AC50 (Paired box protein Pax-8) of the same compound?
A: 7.18 µM (active)

Q: What about the AC50 [5] of the same compound?
A: 1.52 µM (active)

Q: And the AC50 [6]?
A: 12.5 µM (active)

Q: What about the AC50 [7] of the same compound?
A: 4.22 µM (active)

Q: And the AC50 [8]?
A: > 100 µM (inactive)

Q: What about the EC50 [9] of the same compound?
A: 283 nM (active)

Q: What about the IC50 [10] of the same compound?
A: > 80 µM (inactive)

Q: What about the AC50 [11] of the same compound?
A: 805 nM (active)

Q: What about the AC50 [12] of the same compound?
A: 9.61 µM (active)

Q: And the AC50 [13]?
A: 2.17 µM (active)

Q: What about the AC50 [14] of the same compound?
A: 665 nM (active)

Q: What about the EC50 [15] of the same compound?
A: 364 nM (active)

Q: And the IC50 [16]?
A: 4.2 µM (active)

Q: With `CCN(CC(=O)Nc1ccc(N2CCOCC2)cc1)Cc1nc2ccccc2c(=O)[nH]1` as the compound, how does the AC50 (Cytochrome P450 1A2) read?
A: 20 µM (inconclusive)

Q: And the AC50 (Cytochrome P450 2C19)?
A: 22.4 µM (inconclusive)

Q: What about the EC50 [17] of the same compound?
A: 30 nM (not active)

Q: With `CCCc1ncc(CN2CCCC(C(=O)Nc3ccc(-c4cccc(OC)c4)cc3)C2)cn1` (configuration not stated) as the compound, how does the IC50 [1] read?
A: > 100 µM (active)

Q: Which IC50 [18] does the source give for `CC(C)NC(=O)C1CCCN(S(=O)(=O)c2cccs2)C1` (configuration not stated) here?
A: > 100 µM (active)
